Laboratory results from US20060052456A1, “Kynurenine 3-hydroxylase inhibitors for the treatment of diabetes by increasing the number of islets of langerhans cells” (MERCK PATENT GMBH, priority 2003, published 2006).

Key:
kynurenine 3-hydroxylase = molecular target: T1, kynurenine 3-hydroxylase (Rattus norvegicus, UniProt O88867); experiment: Inhibitory activity on kynurenine 3-hydroxylase in rat liver homogenate; assay type: biochemical; details: mean of two experiments, read-out: IC50, kynurenine 3-hydroxylase inhibition
T1 construct: from tissue; host or cells: rat liver homogenate (12000 rpm pellet, resuspended)
T1 sequence (O88867 whole entry): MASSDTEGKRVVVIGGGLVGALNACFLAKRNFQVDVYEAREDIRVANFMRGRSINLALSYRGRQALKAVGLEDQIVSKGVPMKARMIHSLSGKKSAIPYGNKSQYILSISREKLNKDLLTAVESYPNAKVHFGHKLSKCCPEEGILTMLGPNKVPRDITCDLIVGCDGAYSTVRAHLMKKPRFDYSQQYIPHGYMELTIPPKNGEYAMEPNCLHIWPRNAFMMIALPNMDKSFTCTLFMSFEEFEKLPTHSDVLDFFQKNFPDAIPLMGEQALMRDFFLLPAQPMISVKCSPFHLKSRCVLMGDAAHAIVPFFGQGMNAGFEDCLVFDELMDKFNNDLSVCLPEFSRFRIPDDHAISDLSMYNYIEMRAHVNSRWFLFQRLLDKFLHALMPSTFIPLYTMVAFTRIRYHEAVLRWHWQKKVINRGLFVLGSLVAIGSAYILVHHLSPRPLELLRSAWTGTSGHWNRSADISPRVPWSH
Experimental: Study of the Inhibitory Activity on Kynurenine 3-Hydroxylase in Rat Liver
Rat livers are homogenised (1:8 weight/volume) in a buffer solution comprising: 0.25 M sucrose; 50 mM pH 7.4 Tris; 1 mM EDTA; and 1 mM DTT.
The homogenates are centrifuged for 10 minutes at 12000 rpm. The pellets are resuspended in the buffer solution described above (1:2 weight/volume).
The kynurenine 3-hydroxylase inhibition is determined by incubating 10 μL of the homogenate with NADPH (2 mM), kynurenine (100 μM) and various concentrations of the test compounds in a final volume of 100 μL at 37° C. for 5 minutes.
The compounds are tested at concentrations of between 1 μM and 300 μM. 3,4-Dimethoxy-N-[4-(3-nitrophenyl)thiazol-2-yl]benzenesulfonamide is a compound from the company Hoffmann-LaRoche (Basle, see J. Med. Chem., 40 (1997), 4738). 30H-Kynurenine was tested according to the protocol described by Carpendo et al. (Neuroscience, 61 (1994), 237-244).
Each of the experiments is repeated once and the IC50 values (in μmol/L) are calculated and given in the form of a mean of these two experiments.
Results concerning representative examples of family Ih are given in Table II below, in which is indicated the measurement of the percentage of remaining kynurenine 3-hydroxylase activity relative to the control (100%).

hepatocytes = experiment: Hepatic glucose production in vitro in isolated hepatocytes (Table IV); assay type: cell-based, Wistar rats; details: Rattus norvegicus, Hepatocyte
Experimental: The following two methods were used:
1) The hepatocytes are cultured for 16 to 18 hours in DMEM medium in the presence of AMP cyclase/dexamethasone at respective concentrations of 5×10^−5 M and 5×10^−7 M, with preincubation of the products at the test doses. After washing in pH 7.4 PBS buffer, the cells are incubated for three hours at 37° C. in a Krebs/AMPc/DEX buffer at the abovementioned concentrations. 0.1 μM insulin is used as reference substance. Two identical experiments are performed (Table III-1).
After washing in pH 7.4 PBS buffer, the cells are incubated for two hours at 37° C. in a Krebs buffer free of glucose and of insulin, containing lactate/pyruvate (10/1 mM) in the presence or absence of the test compounds. 10 μM MICA (5-methoxyindole-2-carboxylic acid) is used as reference substance. Two identical experiments are performed (Table III-2).
The protein assay is performed on the rest of the incubation medium via the Lowry method (BIO-RAD Dc protein assay, BIO-RAD 5000116).
The results are expressed as nmoles of glucose produced per […] of proteins. The statistical test used is the t test.

[1] = system: perfused isolated pancreases from N0 STZ diabetic rats; experiment: Secretion of insulin and glucagon in perfused isolated pancreases from N0 STZ diabetic rats; assay type: cell-based; details: perfused diabetic rat pancreas; absence of glucose, then 16.5 mM glucose; glucose-dependent
Excerpt: The results are expressed as the mean ±SEM (standard error of mean) of several experiments. The statistical test used is the Scheffé test.

In the case of COc1ccc(S(=O)(=O)Nc2nc(-c3cccc([N+](=O)[O-])c3)cs2)cc1OC [Compound k, 3,4-dimethoxy-N-[4-(3-nitrophenyl)thiazol-2-yl]benzenesulfonamide], the IC50 (kynurenine 3-hydroxylase) is reported as 10 ± 2.1 µM, the inhibition at 10 µM (hepatocytes; 10 μM) is reported as 0% and the inhibition at 100 µM (hepatocytes; 100 μM) is reported as 22%. The “glucagon secretion (in words)” value [1] was “stimulation” and the “insulin secretion (in words)” value [1] was “stimulation”.
